Results taken from patent US5073563A, “Alkoxycoumarins substituted by a heterocyclic radical, their preparation and therapeutic agents containing these compounds” (BASF Aktiengesellschaft, priority 1988, dated 1991).
Counter-ions that a name gives are not always drawn.

target: T1, MAO A (Rattus norvegicus, UniProt P21396); assay: MAO A inhibition in dilute rat brain homogenate (14C substrate, 20 min at 37° C); assay type: biochemical; conditions: 14C-phenylethylamine or 14C-tryptamine 0.4 μmol/l, logit-log regression
T1 construct: determined in dilute rat brain homogenate; from tissue; host or cells: rat brain homogenate
T1 sequence (P21396 1-526): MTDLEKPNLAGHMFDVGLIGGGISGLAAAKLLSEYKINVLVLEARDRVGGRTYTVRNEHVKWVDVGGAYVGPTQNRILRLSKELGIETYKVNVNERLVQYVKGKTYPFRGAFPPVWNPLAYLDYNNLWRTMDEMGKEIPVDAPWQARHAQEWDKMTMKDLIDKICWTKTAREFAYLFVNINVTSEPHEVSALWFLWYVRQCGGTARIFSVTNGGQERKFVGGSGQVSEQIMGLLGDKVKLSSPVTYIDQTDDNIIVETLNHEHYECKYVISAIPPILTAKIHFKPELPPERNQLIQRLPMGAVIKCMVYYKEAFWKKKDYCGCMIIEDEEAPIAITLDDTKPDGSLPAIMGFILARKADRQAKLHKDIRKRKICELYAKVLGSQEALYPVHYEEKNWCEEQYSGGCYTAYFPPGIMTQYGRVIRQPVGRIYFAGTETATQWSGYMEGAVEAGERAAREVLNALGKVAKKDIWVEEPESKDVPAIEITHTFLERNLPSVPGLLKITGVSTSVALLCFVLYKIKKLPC
Method: (§1) The MAO-inhibiting activity of the novel compounds can be determined using standard methods. […] The mixture was incubated for 20 minutes at 37° C.
(§2) The blank value was determined in similar mixtures with an incubation time of t=0 min.
(§3) From the inhibitory values determined at the various inhibitor concentrations against a control, the mean inhibitory concentration (IC50) was calculated by linear regression following logit-log transformation.

| SMILES | IC50 [nM] |
| --- | --- |
| Cc1c(C)c2ccc(OCc3ncnn3C(C)C)cc2oc1=O [Example 70, 7-(1-Isopropyl-1,2,4-triazol-5-yl)-methoxy-3,4-dimethylcoumarin hydrochloride] | > 10000 |
| Cc1c(C)c2ccc(OCc3cc(C(C)C)nn3C)cc2oc1=O [Example 72, 7-(3-Isopropyl-1-methylpyrazol-5-yl)-methoxy-3,4-dimethylcoumarin] | ~10000 |
| Cc1c(C)c2ccc(OCc3cc(C)n(C)n3)cc2oc1=O [Example 73, 3,4-Dimethyl-7-(1,5-dimethylpyrazol-3-yl)-methoxycoumarin] | > 10000 |
| Cc1c(C)c2ccc(OCc3csc(Cc4ccccc4)n3)cc2oc1=O [Example 74, 7-(2-Benzylthiazol-4-yl)-methoxy-3,4-dimethylcoumarin] | 3200 |
| Cc1c(C)c2ccc(OCc3csc(C(C)C)n3)cc2oc1=O [Example 75, 7-(2-Isopropylthiazol-4-yl)-methoxy-3,4-dimethylcoumarin] | ~10000 |
| Cc1c(C)c2ccc(OCc3cc(C4CCCC4)no3)cc2oc1=O [Example 78, 7-(3-Cyclopentylisoxazol-5-yl)-methoxy-3,4-dimethylcoumarin] | > 10000 |
| COC(C)c1cc(COc2ccc3c(C)c(C)c(=O)oc3c2)on1 (stereo not shown) [Example 79, 7-[3-(1-Methoxyethyl)-isoxazol-5-yl]-methoxy-3,4-dimethylcoumarin] | 2900 |
| Cc1c(C)c2ccc(OCc3csc(C4CC4)n3)cc2oc1=O [Example 80, 7-(2-Cyclopropylthiazol-4-yl)-methoxy-3,4-dimethylcoumarin] | ~10000 |
| CCc1cc2c(C)c(C)c(=O)oc2cc1OCc1cc(C(C)C)n(C)n1 [Example 84, 6-Ethyl-7-(5-isopropyl-1-methylpyrazol-3-yl)-methoxy-3,4-dimethylcoumarin] | > 10000 |
| CCc1cc2c(C)c(C)c(=O)oc2cc1OCc1nnc(C)s1 [Example 85, 6-Ethyl-3,4-dimethyl-7-(2-methyl-1,3,4-thiadiazol-5-yl)-methoxycoumarin] | > 10000 |
| Cc1c(C)c2ccc(OCc3cc(C4CCCCC4)no3)cc2oc1=O [Example 87, 7-(3-Cyclohexylisoxazol-5-yl)-methoxy-3,4-dimethylcoumarin] | > 10000 |
| Cc1c(C)c2ccc(OCc3ccc(C(C)(C)C)s3)cc2oc1=O [Example 92, 7-(2-tert-Butylthiophen-5-yl)-methoxy-3,4-dimethylcoumarin] | > 10000 |
| Cc1c(C)c2ccc(OCc3nnc(C4CC4)s3)cc2oc1=O [Example 94, 3,4-Dimethyl-7-(2-cyclopropyl-1,3,4-thiadiazol-5yl)-methoxycoumarin] | ~10000 |
| Cc1c(C)c2ccc(OCc3cc(C4(C)CC4)no3)cc2oc1=O [Example 96] | ~20000 |
| Cc1c(C)c2ccc(OCc3cc(C4CCOC4)no3)cc2oc1=O (stereo not shown) [Example 97, 3,4-Dimethyl-7-[3-(tetrahydrofuran-3-yl)-isoxazol-5-yl]-methoxycoumarin] | ~5000 |
| Cc1c(C)c2ccc(OCc3nc(C4CCCC4)no3)cc2oc1=O [Example 98] | > 10000 |
| Cc1c(C)c2ccc(OCc3cc(C4CCCCC4)no3)cc2oc1=O [Example 99, 3,4-Dimethyl-7-(3-cyclohexylisoxazol-5-yl)-methoxycoumarin] | > 10000 |
| Cc1c(C)c2cc(Cl)c(OCc3ccccn3)cc2oc1=O [Example 100, 6-Chloro-3,4-dimethyl-7-(2-pyridinyl)-methoxycoumarin] | > 10000 |
| Cc1nnc(COc2cc3oc(=O)c(Cl)c(C)c3cc2Cl)s1 [Example 101, 3,6-Dichloro-4-methyl-7-(5-methyl-1,3,4-thiadiazol-2-yl)-methoxycoumarin] | > 10000 |
| Cc1c(Cl)c(=O)oc2cc(OCc3csc(C(C)C)n3)c(Cl)cc12 [Example 103, 3,6-Dichloro-4-methyl-7-(2-isopropylthiazol-4-yl)-methoxycoumarin] | > 10000 |

target: T2, MAO B (Rattus norvegicus, UniProt P19643); assay: MAO B inhibition in dilute rat brain homogenate (14C substrate, 20 min at 37° C); assay type: biochemical; conditions: quotient of IC50 MAO A and IC50 MAO B (selectivity for MAO B); 20 min
T2 construct: determined in dilute rat brain homogenate; from tissue; host or cells: rat brain homogenate
T2 sequence (P19643 1-520): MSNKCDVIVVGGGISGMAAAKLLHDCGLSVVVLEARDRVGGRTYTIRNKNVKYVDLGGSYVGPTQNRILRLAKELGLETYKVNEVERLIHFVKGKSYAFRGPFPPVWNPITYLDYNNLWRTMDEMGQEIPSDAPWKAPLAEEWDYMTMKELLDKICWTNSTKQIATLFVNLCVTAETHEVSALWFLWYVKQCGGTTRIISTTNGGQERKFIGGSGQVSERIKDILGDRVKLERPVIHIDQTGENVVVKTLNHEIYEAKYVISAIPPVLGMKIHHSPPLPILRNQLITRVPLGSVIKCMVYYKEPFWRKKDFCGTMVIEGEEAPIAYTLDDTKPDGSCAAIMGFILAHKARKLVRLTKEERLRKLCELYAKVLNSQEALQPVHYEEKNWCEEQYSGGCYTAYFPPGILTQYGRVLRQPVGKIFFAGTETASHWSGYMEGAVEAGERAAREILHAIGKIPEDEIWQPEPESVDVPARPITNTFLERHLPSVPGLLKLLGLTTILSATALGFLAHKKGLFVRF
Method: as §1, §2, §3

| SMILES | IC50 ratio MAO A / MAO B |
| --- | --- |
| Cc1c(C)c2ccc(OCc3ncnn3C(C)C)cc2oc1=O [Example 70, 7-(1-Isopropyl-1,2,4-triazol-5-yl)-methoxy-3,4-dimethylcoumarin hydrochloride] | > 770 |
| Cc1c(C)c2ccc(OCc3cc(C(C)C)nn3C)cc2oc1=O [Example 72, 7-(3-Isopropyl-1-methylpyrazol-5-yl)-methoxy-3,4-dimethylcoumarin] | ~ 2000 |
| Cc1c(C)c2ccc(OCc3cc(C)n(C)n3)cc2oc1=O [Example 73, 3,4-Dimethyl-7-(1,5-dimethylpyrazol-3-yl)-methoxycoumarin] | > 700 |
| Cc1c(C)c2ccc(OCc3csc(Cc4ccccc4)n3)cc2oc1=O [Example 74, 7-(2-Benzylthiazol-4-yl)-methoxy-3,4-dimethylcoumarin] | 580 |
| Cc1c(C)c2ccc(OCc3csc(C(C)C)n3)cc2oc1=O [Example 75, 7-(2-Isopropylthiazol-4-yl)-methoxy-3,4-dimethylcoumarin] | ~ 7000 |
| Cc1c(C)c2ccc(OCc3cc(C4CCCC4)no3)cc2oc1=O [Example 78, 7-(3-Cyclopentylisoxazol-5-yl)-methoxy-3,4-dimethylcoumarin] | > 7700 |
| COC(C)c1cc(COc2ccc3c(C)c(C)c(=O)oc3c2)on1 (stereo not shown) [Example 79, 7-[3-(1-Methoxyethyl)-isoxazol-5-yl]-methoxy-3,4-dimethylcoumarin] | 2400 |
| Cc1c(C)c2ccc(OCc3csc(C4CC4)n3)cc2oc1=O [Example 80, 7-(2-Cyclopropylthiazol-4-yl)-methoxy-3,4-dimethylcoumarin] | ~ 7100 |
| CCc1cc2c(C)c(C)c(=O)oc2cc1OCc1cc(C(C)C)n(C)n1 [Example 84, 6-Ethyl-7-(5-isopropyl-1-methylpyrazol-3-yl)-methoxy-3,4-dimethylcoumarin] | > 1100 |
| CCc1cc2c(C)c(C)c(=O)oc2cc1OCc1nnc(C)s1 [Example 85, 6-Ethyl-3,4-dimethyl-7-(2-methyl-1,3,4-thiadiazol-5-yl)-methoxycoumarin] | > 1700 |
| Cc1c(C)c2ccc(OCc3cc(C4CCCCC4)no3)cc2oc1=O [Example 87, 7-(3-Cyclohexylisoxazol-5-yl)-methoxy-3,4-dimethylcoumarin] | > 700 |
| Cc1c(C)c2ccc(OCc3ccc(C(C)(C)C)s3)cc2oc1=O [Example 92, 7-(2-tert-Butylthiophen-5-yl)-methoxy-3,4-dimethylcoumarin] | > 1000 |
| Cc1c(C)c2ccc(OCc3nnc(C4CC4)s3)cc2oc1=O [Example 94, 3,4-Dimethyl-7-(2-cyclopropyl-1,3,4-thiadiazol-5yl)-methoxycoumarin] | ~ 8300 |
| Cc1c(C)c2ccc(OCc3cc(C4(C)CC4)no3)cc2oc1=O [Example 96] | ~ 32000 |
| Cc1c(C)c2ccc(OCc3cc(C4CCOC4)no3)cc2oc1=O (stereo not shown) [Example 97, 3,4-Dimethyl-7-[3-(tetrahydrofuran-3-yl)-isoxazol-5-yl]-methoxycoumarin] | ~ 1400 |
| Cc1c(C)c2ccc(OCc3nc(C4CCCC4)no3)cc2oc1=O [Example 98] | > 11000 |
| Cc1c(C)c2ccc(OCc3cc(C4CCCCC4)no3)cc2oc1=O [Example 99, 3,4-Dimethyl-7-(3-cyclohexylisoxazol-5-yl)-methoxycoumarin] | > 1200 |
| Cc1c(C)c2cc(Cl)c(OCc3ccccn3)cc2oc1=O [Example 100, 6-Chloro-3,4-dimethyl-7-(2-pyridinyl)-methoxycoumarin] | > 13000 |
| Cc1nnc(COc2cc3oc(=O)c(Cl)c(C)c3cc2Cl)s1 [Example 101, 3,6-Dichloro-4-methyl-7-(5-methyl-1,3,4-thiadiazol-2-yl)-methoxycoumarin] | > 10000 |
| Cc1c(Cl)c(=O)oc2cc(OCc3csc(C(C)C)n3)c(Cl)cc12 [Example 103, 3,6-Dichloro-4-methyl-7-(2-isopropylthiazol-4-yl)-methoxycoumarin] | > 5500 |

same assay, conditions: rat brain homogenate; 14C-phenylethylamine or 14C-tryptamine 0.4 μmol/l; 20 minutes at 37° C; logit-log regression

| SMILES | IC50 [nM] |
| --- | --- |
| Cc1c(C)c2ccc(OCc3ncnn3C(C)C)cc2oc1=O [Example 70, 7-(1-Isopropyl-1,2,4-triazol-5-yl)-methoxy-3,4-dimethylcoumarin hydrochloride] | 13 |
| Cc1c(C)c2ccc(OCc3cc(C(C)C)nn3C)cc2oc1=O [Example 72, 7-(3-Isopropyl-1-methylpyrazol-5-yl)-methoxy-3,4-dimethylcoumarin] | 4.9 |
| Cc1c(C)c2ccc(OCc3cc(C)n(C)n3)cc2oc1=O [Example 73, 3,4-Dimethyl-7-(1,5-dimethylpyrazol-3-yl)-methoxycoumarin] | 14 |
| Cc1c(C)c2ccc(OCc3csc(Cc4ccccc4)n3)cc2oc1=O [Example 74, 7-(2-Benzylthiazol-4-yl)-methoxy-3,4-dimethylcoumarin] | 5.5 |
| Cc1c(C)c2ccc(OCc3cc(C4CCCC4)no3)cc2oc1=O [Example 78, 7-(3-Cyclopentylisoxazol-5-yl)-methoxy-3,4-dimethylcoumarin] | 1.3 |
| COC(C)c1cc(COc2ccc3c(C)c(C)c(=O)oc3c2)on1 (stereo not shown) [Example 79, 7-[3-(1-Methoxyethyl)-isoxazol-5-yl]-methoxy-3,4-dimethylcoumarin] | 1.2 |
| Cc1c(C)c2ccc(OCc3csc(C4CC4)n3)cc2oc1=O [Example 80, 7-(2-Cyclopropylthiazol-4-yl)-methoxy-3,4-dimethylcoumarin] | 1.4 |
| CCc1cc2c(C)c(C)c(=O)oc2cc1OCc1cc(C(C)C)n(C)n1 [Example 84, 6-Ethyl-7-(5-isopropyl-1-methylpyrazol-3-yl)-methoxy-3,4-dimethylcoumarin] | 9.1 |
| CCc1cc2c(C)c(C)c(=O)oc2cc1OCc1nnc(C)s1 [Example 85, 6-Ethyl-3,4-dimethyl-7-(2-methyl-1,3,4-thiadiazol-5-yl)-methoxycoumarin] | 6.9 |
| Cc1c(C)c2ccc(OCc3cc(C4CCCCC4)no3)cc2oc1=O [Example 87, 7-(3-Cyclohexylisoxazol-5-yl)-methoxy-3,4-dimethylcoumarin] | 14 |
| Cc1c(C)c2ccc(OCc3ccc(C(C)(C)C)s3)cc2oc1=O [Example 92, 7-(2-tert-Butylthiophen-5-yl)-methoxy-3,4-dimethylcoumarin] | ~10 |
| Cc1c(C)c2ccc(OCc3nnc(C4CC4)s3)cc2oc1=O [Example 94, 3,4-Dimethyl-7-(2-cyclopropyl-1,3,4-thiadiazol-5yl)-methoxycoumarin] | 1.2 |
| Cc1c(C)c2ccc(OCc3cc(C4(C)CC4)no3)cc2oc1=O [Example 96] | 0.61 |
| Cc1c(C)c2ccc(OCc3cc(C4CCOC4)no3)cc2oc1=O (stereo not shown) [Example 97, 3,4-Dimethyl-7-[3-(tetrahydrofuran-3-yl)-isoxazol-5-yl]-methoxycoumarin] | 3.6 |
| Cc1c(C)c2ccc(OCc3nc(C4CCCC4)no3)cc2oc1=O [Example 98] | 0.92 |
| Cc1c(C)c2ccc(OCc3cc(C4CCCCC4)no3)cc2oc1=O [Example 99, 3,4-Dimethyl-7-(3-cyclohexylisoxazol-5-yl)-methoxycoumarin] | 8.2 |
| Cc1c(C)c2cc(Cl)c(OCc3ccccn3)cc2oc1=O [Example 100, 6-Chloro-3,4-dimethyl-7-(2-pyridinyl)-methoxycoumarin] | 0.74 |
| Cc1nnc(COc2cc3oc(=O)c(Cl)c(C)c3cc2Cl)s1 [Example 101, 3,6-Dichloro-4-methyl-7-(5-methyl-1,3,4-thiadiazol-2-yl)-methoxycoumarin] | 1 |
| Cc1c(Cl)c(=O)oc2cc(OCc3csc(C(C)C)n3)c(Cl)cc12 [Example 103, 3,6-Dichloro-4-methyl-7-(2-isopropylthiazol-4-yl)-methoxycoumarin] | 1.8 |

test system: not given; assay: not given; conditions: literature test; cited from earlier work

| SMILES | fungicidal action |
| --- | --- |
| Cc1cc(=O)oc2cc(OCc3cc(-c4ccccc4)no3)ccc12 [4-methyl-7-(3-phenylisoxazol-5-yl-methoxy)-coumarin] | little or no success |

test system: not given; assay: not given; conditions: literature test; cited from earlier work; remark: another data set of the same source

| SMILES | bacteriostatic action |
| --- | --- |
| Cc1cc(=O)oc2cc(OCc3cc(-c4ccccc4)no3)ccc12 [4-methyl-7-(3-phenylisoxazol-5-yl-methoxy)-coumarin] | little or no success |
